PubChem BioAssay AID248 (DTP/NCI, 2004)
“And” between values parts separate entries of the source, which are not always exact repeats. Equal values may be shown once. Toxic doses and inconclusive results are not listed. Cut-off read from the data, not from the text of the source: active = T/C of 150% or more; inactive = T/C below 125%.

Test system: L1210 leukemia ip in BDF1 mice, survival T/C
Assay: NCI In Vivo Anticancer Drug Screen. Data for tumor model L1210 Leukemia (intraperitoneal) in B6D2F1 (BDF1) mice
Details: endpoint: mean survival time, higher = longer survival
In short: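 Antitumor effect is assessed in tumor-bearing animals. Survival in the compound arm is compared with a vehicle-dosed control arm and expressed as their quotient.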

[1] = dose: 5.0 mg/kg/injection, schedule: Q01DX001 (ip), vehicle: saline
[2] = dose: 10.0 mg/kg/injection, schedule: Q01DX001 (ip), vehicle: saline
[3] = dose: 20.0 mg/kg/injection, schedule: Q01DX001 (ip), vehicle: saline
[4] = dose: 25.0 mg/kg/injection, schedule: Q04DX003 (ip), vehicle: saline
[5] = dose: 50.0 mg/kg/injection, schedule: Q04DX003 (ip), vehicle: saline
[6] = dose: 6.25 mg/kg/injection, schedule: Q01DX009 (ip), vehicle: saline
[7] = dose: 12.5 mg/kg/injection, schedule: Q01DX009 (ip), vehicle: saline
[8] = dose: 25.0 mg/kg/injection, schedule: Q01DX009 (ip), vehicle: saline
[9] = dose: 100.0 mg/kg/injection, schedule: Q01DX001 (ip), vehicle: saline with Tween-80
[10] = dose: 200.0 mg/kg/injection, schedule: Q01DX001 (ip), vehicle: saline with Tween-80
[11] = dose: 100.0 mg/kg/injection, schedule: Q01DX009 (ip), vehicle: saline with Tween-80
[12] = dose: 100.0 mg/kg/injection, schedule: Q04DX003 (ip), vehicle: saline with Tween-80
[13] = dose: 200.0 mg/kg/injection, schedule: Q01DX009 (ip), vehicle: saline with Tween-80
[14] = dose: 200.0 mg/kg/injection, schedule: Q04DX003 (ip), vehicle: saline with Tween-80
[15] = dose: 400.0 mg/kg/injection, schedule: Q04DX003 (ip), vehicle: saline with Tween-80
[16] = dose: 100.0 mg/kg/injection, schedule: Q01DX009 (ip), vehicle: Klucel (hydroxypropylcellulose) (HPC)
[17] = dose: 200.0 mg/kg/injection, schedule: Q01DX009 (ip), vehicle: Klucel (hydroxypropylcellulose) (HPC)
[18] = dose: 100.0 mg/kg/injection, schedule: Q04DX003 (ip), vehicle: Klucel (hydroxypropylcellulose) (HPC)
[19] = dose: 200.0 mg/kg/injection, schedule: Q04DX003 (ip), vehicle: Klucel (hydroxypropylcellulose) (HPC)
[20] = dose: 400.0 mg/kg/injection, schedule: Q01DX009 (ip), vehicle: Klucel (hydroxypropylcellulose) (HPC)
[21] = dose: 400.0 mg/kg/injection, schedule: Q04DX003 (ip), vehicle: Klucel (hydroxypropylcellulose) (HPC)
[22] = dose: 400.0 mg/kg/injection, schedule: Q01DX001 (ip), vehicle: saline with Tween-80
[23] = dose: 100.0 mg/kg/injection, schedule: Q01DX001 (ip), vehicle: saline
[24] = dose: 200.0 mg/kg/injection, schedule: Q01DX001 (ip), vehicle: saline
[25] = dose: 400.0 mg/kg/injection, schedule: Q01DX001 (ip), vehicle: saline
[26] = dose: 100.0 mg/kg/injection, schedule: Q04DX003 (ip), vehicle: saline

Measured: T/C

O=C1CCC2CCC(CC2)O1
inactive: [1] 119 % of control | [2] 92 % of control | [3] 97 % of control

N#Cc1ccccc1NN=Nc1ccccc1-c1nc(N)nc(N)n1
inactive: [4] 97 % of control | [5] 103 % of control

OC1CSCCc2ccccc21 (stereo unspecified)
inactive: dose: 100.0 mg/kg/injection, schedule: Q01DX001 (ip), vehicle: other 100 % of control | dose: 200.0 mg/kg/injection, schedule: Q01DX001 (ip), vehicle: other 98 % of control | dose: 400.0 mg/kg/injection, schedule: Q01DX001 (ip), vehicle: other 114 % of control

CCCCCCCCCCCC[N+](C)(C)C.C[As](C)(=O)[O-]
inactive: [6] 101 % of control | [7] 101 % of control | [8] 97 % of control and 101 % of control

NC(=S)c1cccc(OCCc2ccccc2)c1
inactive: [9] 97 % of control | [10] 102 % of control

CC(=O)Oc1cc2ccccc2cc1C(C)C
inactive: [11] 98 % of control | [12] 103 % of control | [13] 98 % of control | [14] 95 % of control | dose: 400.0 mg/kg/injection, schedule: Q01DX009 (ip), vehicle: saline with Tween-80 88 % of control | [15] 90 % of control

O=C(N/N=C/C(CC(O)C(O)CO)=N/NC(=O)c1ccc(Cl)cc1)c1ccc(Cl)cc1 (stereo unspecified)
inactive: [16] 109 % of control | [17] 97 % of control

COc1ccc2c(c1OC)CCCCC2=O
inactive: dose: 50.0 mg/kg/injection, schedule: Q01DX009 (ip), vehicle: saline with Tween-80 102 % of control | [11] 98 % of control | [13] 91 % of control

Cc1cccc(SC(=O)Cc2ccc([N+](=O)[O-])cc2)c1
inactive: [11] 91 % of control | [12] 109 % of control | [13] 96 % of control | [14] 102 % of control | [15] 119 % of control

COC(=O)c1ccccc1NC(=O)Nc1cc(Cl)ccc1OC
inactive: [16] 89 % of control | [18] 106 % of control | [17] 103 % of control | [19] 90 % of control | [20] 107 % of control | [21] 95 % of control

COc1cc(Oc2c(OC)cc(C(C)=O)cc2OC)cc(OC)c1OC
inactive: [12] 101 % of control | [14] 97 % of control | [15] 97 % of control

O=C1C2CCN(CC2)C1Cc1ccccc1 (stereo unspecified)
inactive: dose: 100.0 mg/kg/injection, schedule: Q04DX002 (ip), vehicle: saline 111 % of control | dose: 200.0 mg/kg/injection, schedule: Q04DX002 (ip), vehicle: saline 107 % of control

CN(C)CCN1C(=O)CC(c2ccccc2)Sc2ccccc21 (stereo unspecified)
inactive: dose: 3.12 mg/kg/injection, schedule: Q01DX009 (ip), vehicle: saline 98 % of control | [6] 118 % of control | [7] 101 % of control | [8] 107 % of control | [4] 102 % of control | dose: 50.0 mg/kg/injection, schedule: Q01DX009 (ip), vehicle: saline 113 % of control | [5] 113 % of control

Nc1ncc2c(n1)SCC2
inactive: [1] 104 % of control | [2] 104 % of control | [3] 102 % of control | dose: 40.0 mg/kg/injection, schedule: Q01DX001 (ip), vehicle: saline 102 % of control | dose: 80.0 mg/kg/injection, schedule: Q01DX001 (ip), vehicle: saline 116 % of control

Cc1ccc(S(=O)(=O)N/N=C(/c2ccccc2)c2ccsc2C)cc1
inactive: [9] 98 % of control | [10] 88 % of control | [22] 92 % of control

Cc1ccc(Cl)c(OCc2cc(=O)[nH]c(=O)[nH]2)c1
inactive: dose: 10.0 mg/kg/injection, schedule: Q04DX003 (ip), vehicle: saline with Tween-80 101 % of control | dose: 20.0 mg/kg/injection, schedule: Q04DX003 (ip), vehicle: saline with Tween-80 92 % of control | dose: 40.0 mg/kg/injection, schedule: Q04DX003 (ip), vehicle: saline with Tween-80 95 % of control

CCOC(=O)CC1=NC(C)(C)CC(C)O1 (stereo unspecified)
inactive: dose: 100.0 mg/kg/injection, schedule: Q04DX003 (ip), vehicle: saline sonified 98 % of control | dose: 200.0 mg/kg/injection, schedule: Q04DX003 (ip), vehicle: saline sonified 92 % of control | dose: 400.0 mg/kg/injection, schedule: Q04DX003 (ip), vehicle: saline sonified 115 % of control

O=[N+]([O-])c1ccc(S(=O)(=O)OCc2cccc(OS(=O)(=O)c3ccc([N+](=O)[O-])cc3)c2)cc1
inactive: [9] 100 % of control | [16] 94 % of control | [18] 100 % of control | [10] 104 % of control | [17] 93 % of control | [19] 95 % of control | [22] 102 % of control | [20] 107 % of control | [21] 102 % of control

Nc1ncnc2c1ncn2C1CCC(CO)O1 (stereo unspecified)
inactive: [23] 103 % of control | [24] 115 % of control | [25] 105 % of control

c1ccc(C2NC2(c2ccccc2)C2(c3ccccc3)SCCCS2)cc1 (stereo unspecified)
inactive: [18] 111 % of control | [19] 103 % of control | [21] 105 % of control

OC(COc1ccccc1)COc1ccccc1
inactive: [18] 105 % of control | [12] 96 % of control | [19] 105 % of control | [14] 95 % of control | [21] 106 % of control | [15] 93 % of control

CCOc1ccc(NC(=O)c2ccccc2Cl)cc1
inactive: [16] 98 % of control | [17] 95 % of control | [20] 103 % of control

Cc1cc(Cl)ccc1NC(=O)Nc1ccc(Cl)c(Cl)c1
inactive: [18] 88 % of control | [19] 90 % of control | [21] 98 % of control and 88 % of control

NC(=S)N/N=C/c1ccco1
inactive: [4] 105 % of control | [5] 109 % of control | [23] 101 % of control | [18] 93 % of control | [26] 94 % of control and 100 % of control | [24] 104 % of control | [19] 96 % of control | [21] 103 % of control

NCCCCC(NC(=O)OCc1ccccc1)C(=O)CCl (stereo unspecified)
inactive: dose: 10.0 mg/kg/injection, schedule: Q04DX002 (ip), vehicle: saline 109 % of control | dose: 20.0 mg/kg/injection, schedule: Q04DX002 (ip), vehicle: saline 95 % of control

CCOC(=O)CCC(I)C(=O)OCC (stereo unspecified)
inactive: dose: 3.75 mg/kg/injection, schedule: Q01DX010 (ip), vehicle: saline 98 % of control | dose: 15.0 mg/kg/injection, schedule: Q01DX010 (ip), vehicle: saline 90 % of control

O=c1[nH]nc(CC(Br)c2ccccc2)o1 (stereo unspecified)
inactive: [23] 91 % of control | [26] 103 % of control | [24] 90 % of control | dose: 200.0 mg/kg/injection, schedule: Q04DX003 (ip), vehicle: saline 93 % of control | [25] 99 % of control | dose: 400.0 mg/kg/injection, schedule: Q04DX003 (ip), vehicle: saline 105 % of control
